According to US7524880B2, “Crystalline form of a substituted pyrrolidine compound” (Theravance, Inc., priority 2004, dated 2009):

Columns and labels:
[1] = molecular target: T1, M3 muscarinic receptor subtype (hM3) (Homo sapiens, UniProt P20309); assay: Radioligand binding assay ([3H]-NMS displacement, CHO cell membranes); conditions: [3H]-NMS 1 nM, 60 minutes at 37° C.
T1 construct: expressed in transfected cells
Protocol: A. Membrane Preparation from Cells Expressing hM1, hM2, hM3 and hM4 Muscarinic Receptor Subtypes
CHO cell lines stably expressing cloned human hM1, hM2, hM3 and hM4 muscarinic receptor subtypes, respectively, were grown to near confluency in medium consisting of HAM's F-12 supplemented with 10% FBS and 250 μg/mL Geneticin. The cells were grown in a 5% CO2, 37° C. incubator and lifted with 2 mM EDTA in dPBS. Cells were collected by 5 minute centrifugation at 650×g, and cell pellets were either stored frozen at −80° C. or membranes were prepared immediately. For membrane preparation, cell pellets were resuspended in lysis buffer and homogenized with a Polytron PT-2100 tissue disrupter (Kinematica AG; 20 seconds×2 bursts). […] The protein concentration of the membrane suspension was determined by the method described in Lowry, O. et al., […] 193:265 (1951). […]
Radioligand binding assays were performed in 96-well microtiter plates in a total assay volume of 100 μL. […] Filter plates were rinsed three times with wash buffer (10 mM HEPES) to remove unbound radioactivity. […] The plates were then counted in a PerkinElmer Topcount liquid scintillation counter (PerkinElmer Inc., Wellesley, Mass.). Binding data were analyzed by nonlinear regression analysis with the GraphPad Prism Software package (GraphPad Software, Inc., San Diego, Calif.) using the one-site competition model. […]

hM2 receptor = molecular target: T2, hM2 receptor (Homo sapiens, UniProt P08172); assay: Blockade of agonist-mediated [35S]GTPγS binding; type: biochemical; conditions: CHO-K1 cells expressing the hM2 receptor (membranes); read-out: Ki value for blockade of oxotremorine-stimulated [35S]GTPγS binding
T2 construct: expressed in transfected cells; host or cells: CHO-K1 cells
T2 sequence (P08172 1-466): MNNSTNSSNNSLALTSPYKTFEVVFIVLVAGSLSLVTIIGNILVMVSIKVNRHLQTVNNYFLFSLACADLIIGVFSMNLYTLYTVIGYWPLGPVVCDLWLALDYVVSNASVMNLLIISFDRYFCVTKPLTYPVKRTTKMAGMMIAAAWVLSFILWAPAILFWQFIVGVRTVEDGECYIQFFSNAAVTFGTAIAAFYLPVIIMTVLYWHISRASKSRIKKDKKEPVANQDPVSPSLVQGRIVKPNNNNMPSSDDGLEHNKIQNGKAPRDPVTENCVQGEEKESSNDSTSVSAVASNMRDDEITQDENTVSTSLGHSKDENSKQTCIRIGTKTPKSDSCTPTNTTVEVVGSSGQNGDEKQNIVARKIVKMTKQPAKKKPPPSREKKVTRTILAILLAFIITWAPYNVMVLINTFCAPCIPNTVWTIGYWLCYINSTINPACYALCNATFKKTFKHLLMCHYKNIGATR
Protocol: B. Blockade of Agonist-Mediated [^35 S]GTPγS Binding
In a second functional assay, the functional potency of a test compound is determined by measuring the ability of the compound to block oxotremorine-stimulated [^35S]GTPγS binding in CHO-K1 cells expressing the hM2 receptor.
At the time of use, frozen membranes were thawed and then diluted in assay buffer with a final target tissue concentration of 5-10 μg protein per well. The membranes were briefly homogenized using a Polytron PT-2100 tissue disrupter and then added to the assay plates.
The EC90 value (effective concentration for 90% maximal response) for stimulation of [^35S]GTPγS binding by the agonist oxotremorine was determined in each experiment.
The assay plates were then incubated at 37° C. for 60 minutes. The assay plates were filtered over 1% BSA-pretreated GF/B filters using a PerkinElmer 96-well harvester. The plates were rinsed with ice-cold wash buffer for 3×3 seconds and then air or vacuum dried. Microscint-20 scintillation liquid (50 μL) was added to each well, and each plate was sealed and radioactivity counted on a topcounter (PerkinElmer). Data were analyzed by nonlinear regression analysis with the GraphPad Prism Software package (GraphPad Software, Inc., San Diego, Calif.) using the non-linear regression, one-site competition equation. […]

T1 sequence (P20309 whole entry): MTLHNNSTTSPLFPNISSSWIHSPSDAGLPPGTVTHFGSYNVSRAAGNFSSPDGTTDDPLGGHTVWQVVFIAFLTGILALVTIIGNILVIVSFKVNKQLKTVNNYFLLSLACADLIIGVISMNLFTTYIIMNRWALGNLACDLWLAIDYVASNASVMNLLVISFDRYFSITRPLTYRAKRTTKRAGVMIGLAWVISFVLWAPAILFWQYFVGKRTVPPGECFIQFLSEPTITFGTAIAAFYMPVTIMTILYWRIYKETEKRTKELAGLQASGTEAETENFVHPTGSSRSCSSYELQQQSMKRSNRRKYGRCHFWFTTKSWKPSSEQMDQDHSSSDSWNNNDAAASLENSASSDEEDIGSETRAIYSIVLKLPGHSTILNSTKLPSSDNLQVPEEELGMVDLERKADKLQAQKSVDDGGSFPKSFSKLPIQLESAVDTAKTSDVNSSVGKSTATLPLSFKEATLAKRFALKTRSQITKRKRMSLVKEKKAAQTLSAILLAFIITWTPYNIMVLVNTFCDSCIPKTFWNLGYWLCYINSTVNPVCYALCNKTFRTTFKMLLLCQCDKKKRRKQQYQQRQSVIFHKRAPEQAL

Ki [1]: ~0.96 nM
Ki (hM2 receptor): < 5 nM
Structure (SMILES): CNCCCCCCCCN1CC[C@@H](C(C(N)=O)(c2ccccc2)c2ccccc2)C1 [compound of formula I, 2-[(S)-1-(8-methylaminooctyl)pyrrolidin-3-yl]-2,2-diphenylacetamide]
